Test system: panel of 50 SH2 domains
Assay: SPOT peptide array probed with each of 50 GST-SH2 domains
Format: binding
Conditions: SPOT192 peptide array; for SH2 Domains >3X: list of GST-SH2 domains with spot intensity >3X array mean (array-positive); for 2X < SH2 Domains < 3X: list of GST-SH2 domains with spot intensity between 2X and 3X array mean (indeterminate range)
Excerpt: The use of addressable peptide arrays is a reproducible and semi-quantitative approach that has been extensively validated for studying protein interactions with peptide ligands. To investigate connections between SH2 domain proteins and their putative phosphorylated docking sites on cell surface receptors, we developed addressable arrays consisting of 192 phosphotyrosine peptides. This peptide set was assembled using 71 phosphotyrosine peptide motifs corresponding to all of the cytoplasmic tyrosine residues within the FGF receptors (FGFR1-4), insulin receptor (InsR) and IGF-1 receptor (IGF-1R) (Figure 1A). Activation of these receptors results in the phosphorylation of associated scaffold proteins, and so 75 phosphotyrosine peptides corresponding to a comprehensive list of tyrosine residues within insulin receptor substrates (IRS-1 and IRS-2) and fibroblast receptor substrates (FRS-2 and FRS-3) were included. In addition, 33 phosphotyrosine peptides were incorporated from the downstream signaling proteins PLC-γ1, p130Cas (BCAR1) and p62DOK1. […] These control peptides provide a reference and establish the empirical cut-off for designated binding interactions (Table 1). No discrimination was made against peptides on the basis of reported phosphorylation state in order to examine a diverse and unbiased set of motifs. The resulting set of 192 phosphotyrosine peptides and their corresponding position in the proteins of origin is noted in Additional file 1: Table S1. Addressable arrays were synthesized as membrane-bound 11-mer peptides using the SPOT synthesis technique. While the majority of SH2 domains recognize residues C-terminal to the phosphotyrosine in their cognate peptide ligands, additional contacts between SH2 domains and residues N-terminal to the phosphotyrosine are observed for the SH2 domain of Sh2d1a (SAP) and cannot be ruled out in other cases. Peptides were synthesized with six flanking residues C-terminal to the phosphotyrosine and four residues N-terminal to the phosphotyrosine.
To assess the potential network of SH2 domain interactions we selected 50 SH2 domains representing 28 of the 38 families of SH2 domains (Figure 1B) all of which we have previously shown can be expressed and purified. These include a number of extensively studied SH2 domains (Src, Grb2, PLCγ), as well as a number of less studied SH2 domains from proteins such as Shd, She, Shf, Slnk (Sh2d6), Sh2d1a (SAP), Sh2d1b (Eat-2), and Brdg1. To address potential variability in specificity within families we employed all members from the SHB, CRK, GRB2, SRC and ABL families (families are indicated with complete Capitalized lettering).
SH2 domains were arrayed as GST fusion proteins and detected using anti-GST primary antibodies and near-infrared labeled secondary antibodies. In an effort to present a dataset with minimal false positives, we chose an empirical cutoff based on the array average across all peptide spots to classify interactions (Figure 1A). In cases where the intensity of the signal for an individual SH2-domain binding event exceeded the mean intensity of all the peptides on the membrane by three-fold were scored as “array positives” [22]. Non-binding was judged in cases where the intensity of a spot was less than the mean intensity of all spots on the membrane and these were scored as “array negatives”. Peptides with signal intensities between 1X and 3X mean were scored as “indeterminate” and ascribed as neither array positive binding interactions nor array-negative non-binders. […] This signature may be indicative of promiscuity differences between phosphopeptides or there may be a subset of peptides which interact in a nonspecific fashion with either the GST fusion tag or one of the antibodies used for detection, resulting in false positives. […]

GGSPpYPGIPVE [F01]
SH2 Domains >3X: ZAP70_N

CLRRpYGYDSNL [F22]
SH2 Domains >3X: BCAR3, BMX, BRDG1, CRK, CRKL, DAPP1, FER, GRB7, MATK, MIST, PLCG2_N, SHB, SHF, SHD, TENC1
2X < SH2 Domains < 3X: ITK, PLCG2_C, PTPN11_C, RIN1, SH2D2A, SH3BP2

EDYDpYVHLQGK [H13]
SH2 Domains >3X: FYN, LCK, LYN, MIST
2X < SH2 Domains < 3X: BLK, SH2D1B, SHC1

LGPLpYASSNPE [A18]
SH2 Domains >3X: ZAP70_N

QVHTpYVNTTGV [G02]
SH2 Domains >3X: GADS, GRAP, GRB2, GRB7, PI3K1_N, PI3K1_C
2X < SH2 Domains < 3X: ABL1, ZAP70_N

FAQLpYRSLMYS [G18]
SH2 Domains >3X: BRDG1, MIST, Sh2b, SH2D2A, SHB, SHF, SHD, TENC1, ZAP70_N
2X < SH2 Domains < 3X: BMX, DAPP1, GADS, GRAP, PLCG2_N, PTPN11_C, SYK_C

CTGDpYMNMSPV [C09]
2X < SH2 Domains < 3X: PI3K1_C

MEYSpYDINRVP [E22]
SH2 Domains >3X: ABL1

EDSGpYMRMWAG [D20]
SH2 Domains >3X: FYN, PI3K1_C
2X < SH2 Domains < 3X: LCK

YWDLpYEHAQQQ [H18]
SH2 Domains >3X: ABL1, BCAR3, BMX, FER, ITK, MATK, RASA1_N, RASA1_C, SH3BP2, SHB, TENC1
2X < SH2 Domains < 3X: CRKL

STDEpYLDLSAP [F11]
SH2 Domains >3X: LCK

PTYFpYVTDYLD [A15]
SH2 Domains >3X: BCAR3, BRK, ITK, MATK, PLCG2_N, PLCG2_C, RASA1_N, SH2D2A, SLNK, SYK_C, VAV1
2X < SH2 Domains < 3X: DAPP1, RIN1, SH2D1B, TENC1

NALGpYTVSSFS [G11]
SH2 Domains >3X: ABL2, CRK, CRKL, GRB7, MATK, SH2D2A
2X < SH2 Domains < 3X: ABL1

GGEFpYGYMTMD [D10]
SH2 Domains >3X: BCAR3, DAPP1, GRB7, PLCG2_C, SLNK
2X < SH2 Domains < 3X: BMX, MATK, RASA1_N, RASA1_C

DDPSpYVNVQNL [A06]
SH2 Domains >3X: GADS, GRAP, GRB2, SH2D1B

HHIDpYYKKTTN [E13]
SH2 Domains >3X: BCAR3, BMX, BRDG1, FER, MIST, PLCG2_N, PTPN11_C, SHB, SHF, TENC1
2X < SH2 Domains < 3X: DAPP1, ITK, MATK, PI3K1_N, PTPN11_N, RIN1, SH3BP2, SHD, SHE, SHIP1, SYK_C

LIGIpYRLCLTS [B24]
2X < SH2 Domains < 3X: BCAR3, BRDG1, MIST, SHD

ADDGpYMPMTPG [D18]
SH2 Domains >3X: HCK, SRC
2X < SH2 Domains < 3X: PI3K1_C

LIALpYTKDEYF [D03]
SH2 Domains >3X: SH2D2A
2X < SH2 Domains < 3X: ABL1, PLCG2_C

EFYGpYMTMDRP [D11]
SH2 Domains >3X: PI3K1_C

GYPRpYPSFGDA [G01]
2X < SH2 Domains < 3X: ZAP70_N

AEPDpYGALYEG [H01]
SH2 Domains >3X: FGR, FYN, HCK, LYN, SH2D1B, SHC1, SHIP1, SLNK, SRC, YES, ZAP70_N
2X < SH2 Domains < 3X: BLK, BMX, LCK

QGYVpYEAAQPE [H09]
SH2 Domains >3X: VAV1
2X < SH2 Domains < 3X: ZAP70_N

QDSWpYQALLQL [B22]
SH2 Domains >3X: ABL2, BCAR3, CRK, MATK, SH2D2A, SYK_C, TENC1, VAV1
2X < SH2 Domains < 3X: BMX, GADS, RIN1, Sh2b, SHD

PNGDpYLNVSPS [D21]
SH2 Domains >3X: GADS, GRAP, GRB2, GRB7, VAV1
2X < SH2 Domains < 3X: HCK, PI3K1_N, SH2D1B, SHIP1

SPGEpYVNIEFG [C16]
SH2 Domains >3X: BLK, BMX, DAPP1, FGR, GADS, GRAP, GRB2, GRB7, ITK, MIST, PI3K1_N, PI3K1_C, PLCG2_C, PTPN11_N, PTPN11_C, RASA1_N, RASA1_C, Sh2b, SH2D2A, SHB, SHF, SHD, SHE, SYK_C, VAV1, YES
2X < SH2 Domains < 3X: ABL1, ABL2, BRK, FYN, HCK, LCK, LYN, SH2D1B, SRC, TENC1

ELSNpYICMGGK [C01]
SH2 Domains >3X: PI3K1_C

QSHTpYVNTPAS [G12]
SH2 Domains >3X: GADS, GRAP, GRB2, GRB7, VAV1
2X < SH2 Domains < 3X: ABL1, SH2D2A

ARLEpYYENEKK [B19]
SH2 Domains >3X: GRB7, MIST, SH3BP2
2X < SH2 Domains < 3X: SH2D2A, SHF, SHD

NLREpYLRARRP [E20]
SH2 Domains >3X: BCAR3, BMX, BRDG1, MIST, PLCG2_N, RIN1, SHF, SHD, TENC1
2X < SH2 Domains < 3X: BRK, DAPP1, FER, PI3K1_N, PLCG2_C, PTPN11_C, Sh2b, SHB

SLPQpYPHINGS [F06]
SH2 Domains >3X: ZAP70_N

HKIEpYSRRRDA [G08]
SH2 Domains >3X: BRDG1, BRK, PLCG2_N, SHF, TENC1
2X < SH2 Domains < 3X: BCAR3, BMX, ITK, MIST, PLCG2_C, SHB, SYK_C

NPGFpYVEANPM [H03]
SH2 Domains >3X: ZAP70_N
2X < SH2 Domains < 3X: PI3K1_C

TNEEpYLDLSQP [F02]
2X < SH2 Domains < 3X: BLK, FYN, SH2D1B, SRC, ZAP70_N
